Data reported in patent US9796733B2, “Imidazo-pyrazine derivatives useful as soluble guanylate cyclase activators” (Merck Sharp & Dohme Corp., priority 2014, dated 2017).

Molecular target: T1, sGC α1/β1 heterodimer (Homo sapiens, UniProt Q02108+Q02153)
T1 construct: expressed in transfected cells; host or cells: CHO-K1 (clone #7, CHO-K1/sGC)
T1 sequence (Q02108 1-690): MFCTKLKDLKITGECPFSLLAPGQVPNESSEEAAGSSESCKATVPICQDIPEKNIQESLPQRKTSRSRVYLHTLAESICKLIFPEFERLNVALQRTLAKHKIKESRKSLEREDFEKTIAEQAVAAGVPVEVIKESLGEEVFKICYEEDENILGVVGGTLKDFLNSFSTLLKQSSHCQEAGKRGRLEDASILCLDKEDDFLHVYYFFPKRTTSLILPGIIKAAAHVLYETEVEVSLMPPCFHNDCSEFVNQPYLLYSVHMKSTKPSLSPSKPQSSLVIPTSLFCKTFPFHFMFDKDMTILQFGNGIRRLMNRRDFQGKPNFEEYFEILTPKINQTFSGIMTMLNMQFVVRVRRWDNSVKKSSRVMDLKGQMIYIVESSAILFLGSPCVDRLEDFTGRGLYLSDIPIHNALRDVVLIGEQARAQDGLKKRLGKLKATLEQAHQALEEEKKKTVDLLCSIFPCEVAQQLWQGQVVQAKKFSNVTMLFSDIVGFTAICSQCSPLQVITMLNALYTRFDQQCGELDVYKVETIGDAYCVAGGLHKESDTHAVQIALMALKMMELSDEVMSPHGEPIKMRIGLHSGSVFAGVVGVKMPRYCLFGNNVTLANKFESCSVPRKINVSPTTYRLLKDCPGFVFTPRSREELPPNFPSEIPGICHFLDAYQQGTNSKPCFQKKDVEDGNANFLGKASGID
T1 sequence (Q02153 1-619): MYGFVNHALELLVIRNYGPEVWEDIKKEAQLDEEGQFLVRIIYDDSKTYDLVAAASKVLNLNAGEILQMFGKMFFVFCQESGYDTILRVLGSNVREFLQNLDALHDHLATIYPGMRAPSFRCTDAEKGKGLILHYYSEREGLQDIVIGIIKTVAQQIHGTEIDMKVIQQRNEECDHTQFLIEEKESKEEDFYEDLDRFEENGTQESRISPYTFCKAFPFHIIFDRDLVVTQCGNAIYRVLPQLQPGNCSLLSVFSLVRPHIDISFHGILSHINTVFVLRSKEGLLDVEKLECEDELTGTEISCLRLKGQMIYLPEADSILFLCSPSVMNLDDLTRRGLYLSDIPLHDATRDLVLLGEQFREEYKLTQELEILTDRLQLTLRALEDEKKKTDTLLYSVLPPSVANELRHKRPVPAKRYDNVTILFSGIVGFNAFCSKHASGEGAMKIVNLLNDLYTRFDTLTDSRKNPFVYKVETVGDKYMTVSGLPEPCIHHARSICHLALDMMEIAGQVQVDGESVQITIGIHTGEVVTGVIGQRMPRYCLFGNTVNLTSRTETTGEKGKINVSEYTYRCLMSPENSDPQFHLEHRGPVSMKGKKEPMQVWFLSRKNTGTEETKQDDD
Assay: Cell-based sGC functional assay (CASA assay): cGMP generation in CHO-K1/sGC cells, HTRF detection
Settings: for Emax: CHO-K1, percent activation relative to standard Compound A in CHO-K1/sGC cells, read-out: % Act.; for EC50: inflection point (IP) of cGMP generation in CHO-K1/sGC cells, 4P fit, activity expressed as percentage of Compound A
Procedure, shortened: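 Stable CHO-K1/sGC cells in EBSS buffer with 5 mM MgCl2, 0.05% BSA and 0.5 mM IBMX were incubated with compound (2.5% DMSO final) ±1 μM DETA-NO for 1 hr at 37° C. cGMP was measured by HTRF. Activation is expressed as % of reference HDA Compound A maximum, with IP and max fold induction from a 4P fit.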

Row | Structure (SMILES) | Emax [%] | EC50 [nM]
1 | Cc1nnc(C2(C)C(=O)Nc3nc(-c4cn5ccnc5c(CCC(F)(F)C(F)(F)F)n4)nc(N)c32)s1 (centres unmarked) [Example 58A, 4-amino-5-methyl-5-(5-methyl-1,3,4-thiadiazol-2-yl)-2-(8-(3,3,4,4,4-pentafluorobutyl)imidazo[1,2-a]pyrazin-6-yl)-5H-pyrrolo[2,3-d]pyrimidin-6(7H)-one] | 93 | 636
2 | Cn1cc(C2(C)C(=O)Nc3nc(-c4cn5ccnc5c(Cc5ccc(F)cc5)n4)nc(N)c32)nn1 (centres unmarked) [Example 65A, 4-amino-2-(8-(4-fluorobenzyl)imidazo[1,2-a]pyrazin-6-yl)-5-methyl-5-(1-methyl-1H-1,2,3-triazol-4-yl)-5H-pyrrolo[2,3-d]pyrimidin-6(7H)-one] | 108 | 256
3 | C#CC1(C)C(=O)Nc2nc(-c3cn4ccnc4c(CCC(F)(F)C(F)(F)F)n3)nc(N)c21 (centres unmarked) [Example 66A, 4-amino-5-ethynyl-5-methyl-2-(8-(3,3,4,4,4-pentafluorobutyl)imidazo[1,2-a]pyrazin-6-yl)-5H-pyrrolo[2,3-d]pyrimidin-6(7H)-one] | 127 | 252
4 | CC(C)n1cc(C2(C)C(=O)Nc3nc(-c4cn5ccnc5c(CCC(F)(F)C(F)(F)F)n4)nc(N)c32)nn1 (centres unmarked) [Example 67A, 4-amino-5-(1-isopropyl-1H-1,2,3-triazol-4-yl)-5-methyl-2-(8-(3,3,4,4,4-pentafluorobutyl)imidazo[1,2-a]pyrazin-6-yl)-5H-pyrrolo[2,3-d]pyrimidin-6(7H)-one] | 120 | 746
5 | CC1(C)C(=O)Nc2nc(-c3cn4ccnc4c(Cc4ccc(F)cc4)n3)nc(N)c21 [Example 72, 4-amino-2-(8-(4-fluorobenzyl)imidazo[1,2-a]pyrazin-6-yl)-5,5-dimethyl-5H-pyrrolo[2,3-d]pyrimidin-6(7H)-one] | 126 | 342
6 | CCC1(CC)C(=O)Nc2nc(-c3cn4ccnc4c(Cc4ccccc4)n3)nc(N)c21 [Example 79, 4-amino-2-(8-benzylimidazo[1,2-a]pyrazin-6-yl)-5,5-diethyl-5H-pyrrolo[2,3-d]pyrimidin-6(7H)-one] | 112 | 36
7 | CC(C)C1(C)C(=O)Nc2nc(-c3cn4ccnc4c(Cc4ccccc4)n3)nc(N)c21 (centres unmarked) [Example 80A, 4-amino-2-(8-benzylimidazo[1,2-a]pyrazin-6-yl)-5-isopropyl-5-methyl-5H-pyrrolo[2,3-d]pyrimidin-6(7H)-one] | 125 | 66
8 | CC1(C2CC2)C(=O)Nc2nc(-c3cn4ccnc4c(Cc4ccccc4)n3)nc(N)c21 (centres unmarked) [Example 82A, 4-amino-2-(8-benzylimidazo[1,2-a]pyrazin-6-yl)-5-cyclopropyl-5-methyl-5H-pyrrolo[2,3-d]pyrimidin-6(7H)-one] | 120 | 90
9 | CC1(C)C(=O)Nc2nc(-c3cn4ccnc4c(CCC(F)(F)C(F)(F)F)n3)nc(N)c21 [Example 87, 4-amino-5,5-dimethyl-2-(8-(3,3,4,4,4-pentafluorobutyl)imidazo [1,2-a]pyrazin-6-yl)-5H-pyrrolo[2,3-d]pyrimidin-6(7H)-one] | 54 | 399
10 | CC1(c2ccc(F)cc2)C(=O)Nc2nc(-c3cn4ccnc4c(Cc4ccccc4F)n3)nc(N)c21 (centres unmarked) [Example 89A, 4-amino-2-(8-(2-fluorobenzyl)imidazo[1,2-a]pyrazin-6-yl)-5-(4-fluorophenyl)-5-methyl-5H-pyrrolo[2,3-d]pyrimidin-6(7H)-one] | 141 | 4
11 | CC1(c2ccc(F)cc2)C(=O)Nc2nc(-c3cn4ccnc4c(Cc4ccc(F)cc4)n3)nc(N)c21 (centres unmarked) [Example 92A, 4-amino-2-(8-(4-fluorobenzyl)imidazo[1,2-a]pyrazin-6-yl)-5-(4-fluorophenyl)-5-methyl-5H-pyrrolo[2,3-d]pyrimidin-6(7H)-one] | 97 | 9
12 | CC1(c2ccc(F)cc2)C(=O)Nc2nc(-c3cn4ccnc4c(Cc4cccc(Cl)c4)n3)nc(N)c21 (centres unmarked) [Example 94A, 4-amino-2-(8-(3-chlorobenzyl)imidazo[1,2-a]pyrazin-6-yl)-5-(4-fluorophenyl)-5-methyl-5H-pyrrolo[2,3-d]pyrimidin-6(7H)-one] | 108 | 5
13 | CC1(c2ccc(Cl)cc2)C(=O)Nc2nc(-c3cn4ccnc4c(Cc4cccc(Cl)c4)n3)nc(N)c21 (centres unmarked) [Example 95A, 4-amino-2-(8-(3-chlorobenzyl)imidazo[1,2-a]pyrazin-6-yl)-5-(4-chlorophenyl)-5-methyl-5H-pyrrolo[2,3-d]pyrimidin-6(7H)-one] | 109 | 4
14 | CC1(c2ccc(F)cc2)C(=O)Nc2nc(-c3cn4ccnc4c(Cc4ccc(F)c(F)c4)n3)nc(N)c21 (centres unmarked) [Example 96A, 4-amino-2-(8-(3,4-difluorobenzyl)imidazo[1,2-a]pyrazin-6-yl)-5-(4-fluorophenyl)-5-methyl-5H-pyrrolo[2,3-d]pyrimidin-6(7H)-one] | 106 | 4

Next, values leading:

Row | Emax [%] | EC50 [nM] | Structure (SMILES)
15 | 99 | 109 | CC(C)n1cc(C2(C)C(=O)Nc3nc(-c4cn5ccnc5c(Cc5ccc(F)cc5)n4)nc(N)c32)nn1 (centres unmarked) [Example 63A, 4-Amino-2-(8-(4-fluorobenzyl)imidazo[1,2-a]pyrazin-6-yl)-5-(1-isopropyl-1H-1,2,3-triazol-4-yl)-5-methyl-5H-pyrrolo[2,3-d]pyrimidin-6(7H)-one]
16 | 115 | 196 | CCn1cc(C2(C)C(=O)Nc3nc(-c4cn5ccnc5c(Cc5ccc(F)cc5)n4)nc(N)c32)nn1 (centres unmarked) [Example 64A, 4-amino-5-(1-ethyl-1H-1,2,3-triazol-4-yl)-2-(8-(4-fluorobenzyl)imidazo[1,2-a]pyrazin-6-yl)-5-methyl-5H-pyrrolo[2,3-d]pyrimidin-6(7H)-one]
17 | 111 | 44 | CC1(C)C(=O)Nc2nc(-c3cn4ccnc4c(Cc4ccc(F)c(F)c4)n3)nc(N)c21 [Example 73, 4-amino-2-(8-(3,4-difluorobenzyl)imidazo[1,2-a]pyrazin-6-yl)-5,5-dimethyl-5H-pyrrolo[2,3-d]pyrimidin-6(7H)-one]
18 | 94 | 138 | CC1(C)C(=O)Nc2nc(-c3cn4ccnc4c(Cc4cccc(Cl)c4)n3)nc(N)c21 [Example 74, 4-amino-2-(8-(3-chlorobenzyl)imidazo[1,2-a]pyrazin-6-yl)-5,5-dimethyl-5H-pyrrolo[2,3-d]pyrimidin-6(7H)-one]
19 | 99 | 862 | CC1(C)C(=O)Nc2nc(-c3cn4cc(C(F)(F)F)nc4c(Cc4cccc(F)c4)n3)nc(N)c21 [Example 75, 4-amino-2-(8-(3-fluorobenzyl)-2-(trifluoromethyl)imidazo[1,2-a]pyrazin-6-yl)-5,5-dimethyl-5H-pyrrolo[2,3-d]pyrimidin-6(7H)-one]
20 | 90 | 58 | CCC1(C)C(=O)Nc2nc(-c3cn4ccnc4c(Cc4ccccc4)n3)nc(N)c21 (centres unmarked) [Example 84A, 4-amino-2-(8-benzylimidazo[1,2-a]pyrazin-6-yl)-5-ethyl-5-methyl-5H-pyrrolo[2,3-d]pyrimidin-6(7H)-one]
21 | 79 | 224 | Cn1cc(C2(C)C(=O)Nc3nc(-c4cn5ccnc5c(Cc5ccc(F)cc5)n4)nc(N)c32)cn1 (centres unmarked) [Example 88B, 4-amino-2-(8-(4-fluorobenzyl)imidazo[1,2-a]pyrazin-6-yl)-5-methyl-5-(1-methyl-1H-pyrazol-4-yl)-5H-pyrrolo[2,3-d]pyrimidin-6(7H)-one]
22 | 109 | 12 | CC1(c2ccc(F)cc2)C(=O)Nc2nc(-c3cn4ccnc4c(Cc4ccccc4)n3)nc(N)c21 (centres unmarked) [Example 93A, 4-amino-2-(8-benzylimidazo[1,2-a]pyrazin-6-yl)-5-(4-fluorophenyl)-5-methyl-5H-pyrrolo[2,3-d]pyrimidin-6(7H)-one]
